Source: ChEMBL document CHEMBL5120836, “Discovery of novel 7,8-dihydropteridine-6(5H)-one-based DNA-PK inhibitors as potential anticancer agents via scaffold hopping strategy” (Eur J Med Chem, 2022)
≈ marks a conversion by molar mass, not a printed value. Calls of active or inactive are those of the source. The rule behind the calls is not given here.

What was measured:
[1] = system: HCT-116; test: Induction of apoptosis in human HCT-116 cells assessed as necrotic cells at 1 uM incubated for 24 hrs in presence of 100 nM doxorubicin by AnnexinV-FITC/PI staining based flow cytometry (reference value: 0.031%); type: functional
[2] = system: HepG2; test: Synergistic antiproliferative activity against Doxorubicin-resistant human HepG2 cells assessed as combination index at 12.5 uM in presence of 0.1 uM doxorubicin by MTT assay; type: functional
[3] = system: HepG2; test: Synergistic antiproliferative activity against Doxorubicin-resistant human HepG2 cells assessed as inhibition of cell growth in presence of 100 nM doxorubicin by MTT assay; type: functional, cell-based
[4] = system: HCT-116; test: Induction of cell cycle arrest in human HCT-116 cells assessed as increase in accumulation of cells at […] at 1 uM incubated for 24 hrs in presence of 100 nM doxorubicin by PI staining based flow cytometry; type: functional
[5] = system: MCF7; test: Synergistic antiproliferative activity against human MCF7 cells assessed as combination index at 25 uM in presence of 0.1 uM doxorubicin by MTT assay; type: functional
[6] = Toxicity in BALB/c nude mouse xenografted with human HL-60 cells assessed as MCH level at 100 mg/kg, po qd for 16 days (reference value: 14.1 pg); type: organism-based; conditions: in vivo, 384 h, time 16 day
[7] = Toxicity in BALB/c nude mouse xenografted with human HL-60 cells assessed as heart morphological alterations at 100 mg/kg, po qd for 16 days by Hematoxylin and Eosin staining based analysis; type: organism-based; conditions: in vivo, 384 h, time 16 day
[8] = system: MDA-MB-231; test: Synergistic antiproliferative activity against human MDA-MB-231 cells assessed as inhibition of cell growth in presence of 100 nM doxorubicin by MTT assay; type: functional, cell-based
[9] = system: MDA-MB-231; test: Synergistic antiproliferative activity against human MDA-MB-231 cells assessed as combination index at 0.1 uM in presence of 0.1 uM doxorubicin by MTT assay; type: functional
[10] = biological target: DNA-dependent protein kinase catalytic subunit (Homo sapiens, UniProt P78527); test: Inhibition of human native full length DNA-PK by ADP-Glo assay
DNA-dependent protein kinase catalytic subunit, sequence (P78527 whole entry): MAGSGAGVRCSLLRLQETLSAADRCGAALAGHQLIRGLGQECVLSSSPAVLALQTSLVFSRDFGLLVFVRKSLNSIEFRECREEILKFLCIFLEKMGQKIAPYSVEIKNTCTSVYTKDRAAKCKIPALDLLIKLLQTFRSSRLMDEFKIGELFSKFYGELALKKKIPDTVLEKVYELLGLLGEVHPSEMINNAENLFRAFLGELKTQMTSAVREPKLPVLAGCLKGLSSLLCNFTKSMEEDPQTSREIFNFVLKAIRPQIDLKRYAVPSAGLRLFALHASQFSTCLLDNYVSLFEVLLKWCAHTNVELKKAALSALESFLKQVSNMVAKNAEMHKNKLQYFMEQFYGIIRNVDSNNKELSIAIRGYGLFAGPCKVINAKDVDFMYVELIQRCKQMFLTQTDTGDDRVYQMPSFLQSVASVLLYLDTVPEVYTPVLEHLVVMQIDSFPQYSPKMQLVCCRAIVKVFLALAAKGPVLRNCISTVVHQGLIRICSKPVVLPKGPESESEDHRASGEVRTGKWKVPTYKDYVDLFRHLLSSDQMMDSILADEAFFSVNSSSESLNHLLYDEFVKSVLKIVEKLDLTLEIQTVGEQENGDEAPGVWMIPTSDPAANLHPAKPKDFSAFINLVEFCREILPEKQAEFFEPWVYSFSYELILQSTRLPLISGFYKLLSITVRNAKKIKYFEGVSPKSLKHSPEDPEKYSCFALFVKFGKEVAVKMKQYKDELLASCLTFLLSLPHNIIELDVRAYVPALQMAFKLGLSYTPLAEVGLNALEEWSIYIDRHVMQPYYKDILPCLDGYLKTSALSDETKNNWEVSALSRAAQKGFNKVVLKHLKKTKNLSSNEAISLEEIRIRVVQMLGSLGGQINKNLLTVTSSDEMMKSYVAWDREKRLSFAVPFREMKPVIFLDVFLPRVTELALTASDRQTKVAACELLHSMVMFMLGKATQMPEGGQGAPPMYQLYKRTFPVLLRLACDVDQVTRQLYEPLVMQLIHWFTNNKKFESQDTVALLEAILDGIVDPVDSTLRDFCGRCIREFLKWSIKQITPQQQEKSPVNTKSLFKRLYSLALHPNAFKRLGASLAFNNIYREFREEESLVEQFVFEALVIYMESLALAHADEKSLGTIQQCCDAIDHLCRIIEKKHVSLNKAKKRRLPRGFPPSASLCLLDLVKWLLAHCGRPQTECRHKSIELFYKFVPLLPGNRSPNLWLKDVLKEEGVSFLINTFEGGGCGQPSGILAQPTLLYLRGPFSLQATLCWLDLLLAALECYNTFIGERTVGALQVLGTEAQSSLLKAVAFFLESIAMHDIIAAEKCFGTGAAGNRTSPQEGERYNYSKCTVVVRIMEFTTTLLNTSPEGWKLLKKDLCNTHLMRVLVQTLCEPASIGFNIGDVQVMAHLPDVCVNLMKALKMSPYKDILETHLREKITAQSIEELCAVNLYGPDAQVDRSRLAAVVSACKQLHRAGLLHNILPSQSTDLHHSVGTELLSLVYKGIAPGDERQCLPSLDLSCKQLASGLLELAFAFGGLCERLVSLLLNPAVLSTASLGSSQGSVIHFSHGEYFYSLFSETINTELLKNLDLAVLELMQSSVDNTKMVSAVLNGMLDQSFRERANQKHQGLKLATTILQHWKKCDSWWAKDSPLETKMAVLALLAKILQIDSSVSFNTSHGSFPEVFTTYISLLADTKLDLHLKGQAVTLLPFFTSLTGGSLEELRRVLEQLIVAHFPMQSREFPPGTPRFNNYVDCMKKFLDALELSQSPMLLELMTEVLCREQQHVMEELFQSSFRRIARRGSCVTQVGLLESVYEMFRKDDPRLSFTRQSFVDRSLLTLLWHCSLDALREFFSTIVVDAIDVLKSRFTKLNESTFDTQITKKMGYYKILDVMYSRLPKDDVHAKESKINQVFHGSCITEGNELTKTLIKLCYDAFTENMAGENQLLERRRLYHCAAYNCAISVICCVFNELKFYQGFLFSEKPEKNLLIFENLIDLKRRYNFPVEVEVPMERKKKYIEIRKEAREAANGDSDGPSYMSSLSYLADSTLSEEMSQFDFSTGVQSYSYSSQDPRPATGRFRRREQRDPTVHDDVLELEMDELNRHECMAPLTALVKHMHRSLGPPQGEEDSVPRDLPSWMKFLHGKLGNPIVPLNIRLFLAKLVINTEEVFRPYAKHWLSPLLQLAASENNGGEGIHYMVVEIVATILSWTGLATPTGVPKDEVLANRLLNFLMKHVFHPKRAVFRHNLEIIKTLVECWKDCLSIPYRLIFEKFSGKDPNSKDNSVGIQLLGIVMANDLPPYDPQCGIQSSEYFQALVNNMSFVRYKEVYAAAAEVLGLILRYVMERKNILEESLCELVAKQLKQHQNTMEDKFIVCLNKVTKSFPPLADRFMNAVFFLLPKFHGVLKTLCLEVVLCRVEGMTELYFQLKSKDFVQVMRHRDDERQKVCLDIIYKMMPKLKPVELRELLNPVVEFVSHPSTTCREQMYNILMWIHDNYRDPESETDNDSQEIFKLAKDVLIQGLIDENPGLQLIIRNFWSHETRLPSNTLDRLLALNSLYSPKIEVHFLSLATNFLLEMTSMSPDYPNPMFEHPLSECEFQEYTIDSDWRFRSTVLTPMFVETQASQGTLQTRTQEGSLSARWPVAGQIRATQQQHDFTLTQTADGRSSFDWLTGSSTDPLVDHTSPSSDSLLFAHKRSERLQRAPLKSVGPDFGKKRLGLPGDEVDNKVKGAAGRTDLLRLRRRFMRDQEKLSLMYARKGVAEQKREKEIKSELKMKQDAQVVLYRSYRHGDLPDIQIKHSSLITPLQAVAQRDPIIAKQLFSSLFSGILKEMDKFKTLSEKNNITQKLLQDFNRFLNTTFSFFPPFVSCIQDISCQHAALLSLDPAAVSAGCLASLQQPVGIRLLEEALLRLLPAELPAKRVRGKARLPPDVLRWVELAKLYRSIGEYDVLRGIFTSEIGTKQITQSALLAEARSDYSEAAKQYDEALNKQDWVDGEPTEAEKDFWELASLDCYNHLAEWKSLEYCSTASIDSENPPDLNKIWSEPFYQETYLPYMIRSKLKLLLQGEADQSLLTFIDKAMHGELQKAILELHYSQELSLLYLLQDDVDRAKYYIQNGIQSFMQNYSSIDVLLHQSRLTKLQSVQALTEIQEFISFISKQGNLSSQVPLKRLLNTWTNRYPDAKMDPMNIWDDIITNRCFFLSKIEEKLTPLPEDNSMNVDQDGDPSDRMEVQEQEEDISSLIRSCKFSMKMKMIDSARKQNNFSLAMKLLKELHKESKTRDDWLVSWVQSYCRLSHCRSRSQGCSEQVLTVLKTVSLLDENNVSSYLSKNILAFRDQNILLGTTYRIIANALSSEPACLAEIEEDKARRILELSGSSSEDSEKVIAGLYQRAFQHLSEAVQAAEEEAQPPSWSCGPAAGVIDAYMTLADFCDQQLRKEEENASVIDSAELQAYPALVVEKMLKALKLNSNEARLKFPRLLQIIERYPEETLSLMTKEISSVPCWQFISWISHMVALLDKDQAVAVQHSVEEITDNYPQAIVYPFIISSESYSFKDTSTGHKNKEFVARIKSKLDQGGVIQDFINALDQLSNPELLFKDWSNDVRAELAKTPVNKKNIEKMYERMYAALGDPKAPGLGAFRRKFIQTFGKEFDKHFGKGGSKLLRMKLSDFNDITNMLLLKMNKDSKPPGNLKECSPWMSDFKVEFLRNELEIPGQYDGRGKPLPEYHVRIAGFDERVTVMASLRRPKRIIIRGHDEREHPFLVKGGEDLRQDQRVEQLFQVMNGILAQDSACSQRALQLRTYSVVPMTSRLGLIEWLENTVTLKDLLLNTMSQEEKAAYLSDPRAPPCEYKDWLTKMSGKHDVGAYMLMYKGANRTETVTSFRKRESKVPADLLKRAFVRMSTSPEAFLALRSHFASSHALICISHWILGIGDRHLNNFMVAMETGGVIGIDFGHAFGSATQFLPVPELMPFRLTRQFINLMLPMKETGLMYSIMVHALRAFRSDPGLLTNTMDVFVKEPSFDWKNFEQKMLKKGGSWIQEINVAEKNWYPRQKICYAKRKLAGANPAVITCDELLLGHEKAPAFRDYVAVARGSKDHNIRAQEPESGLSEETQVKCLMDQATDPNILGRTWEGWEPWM

[11] = Toxicity in BALB/c nude mouse xenografted with human HL-60 cells assessed as RDW-SD level at 100 mg/kg, po qd for 16 days (reference value: 34 fL); type: organism-based; conditions: in vivo, 384 h, time 16 day
[12] = system: HL-60; test: Synergistic antiproliferative activity against human HL-60 cells assessed as combination index at 25 uM in presence of 0.1 uM doxorubicin by MTT assay; type: functional
[13] = system: MDA-MB-231; test: Synergistic antiproliferative activity against human MDA-MB-231 cells assessed as combination index at 100 uM in presence of 0.1 uM doxorubicin by MTT assay; type: functional
[14] = system: HCT-116; test: Synergistic antiproliferative activity against human HCT-116 cells assessed as combination index at 1 uM in presence of 100 nM doxorubicin by MTT assay; type: functional
[15] = Plasma protein binding in rat assessed as free fraction; type: ADME, cell-free
[16] = system: HCT-116; test: Induction of cell cycle arrest in human HCT-116 cells assessed as increase in accumulation of cells at G2/M phase at 1 uM incubated for 24 hrs in presence of 100 nM doxorubicin by PI staining based flow cytometry; type: functional
[17] = Kinetic solubility of the compound in phosphate-buffered solution at pH 7.4 incubated for 24 hrs by HPLC-MS/MS analysis; type: physicochemical; conditions: phosphate buffer, read-out: Kinetic_solubility
[18] = system: HepG2; test: Synergistic antiproliferative activity against Doxorubicin-resistant human HepG2 cells assessed as combination index at 0.1 uM in presence of 0.1 uM doxorubicin by MTT assay; type: functional
[19] = Toxicity in BALB/c nude mouse xenografted with human HL-60 cells assessed as liver morphological alterations at 100 mg/kg, po qd for 16 days by Hematoxylin and Eosin staining based analysis; type: organism-based; conditions: in vivo, 384 h, time 16 day
[20] = system: HCT-116; test: Induction of apoptosis in human HCT-116 cells assessed as early apoptotic cells at 1 uM incubated for 24 hrs by AnnexinV-FITC/PI staining based flow cytometry (reference value: 3.04%); type: functional
[21] = Intrinsic clearance in rat liver microsomes; type: ADME, Microsome; conditions: read-out: CLH
[22] = system: HL-60; test: Synergistic antiproliferative activity against human HL-60 cells assessed as combination index at 50 uM in presence of 0.1 uM doxorubicin by MTT assay; type: functional
[23] = Intrinsic clearance in human liver microsomes; type: ADME, Microsome; conditions: read-out: CLH
[24] = system: MCF7; test: Synergistic antiproliferative activity against human MCF7 cells assessed as combination index at 3.1 uM in presence of 0.1 uM doxorubicin by MTT assay; type: functional
[25] = system: HL-60; test: Synergistic antiproliferative activity against human HL-60 cells assessed as inhibition of cell growth in presence of 100 nM doxorubicin by MTT assay; type: functional, cell-based
[26] = system: HCT-116; test: Inhibition of cell migration in human HCT-116 cells at 1 uM measured after 24 hrs by wound healing assay; type: functional, cell-based
[27] = system: MDA-MB-231; test: Additive antiproliferative activity against human MDA-MB-231 cells assessed as combination index at 200 uM in presence of 0.1 uM doxorubicin by MTT assay; type: functional
[28] = Toxicity in BALB/c nude mouse xenografted with human HL-60 cells assessed as PCT level at 100 mg/kg, po qd for 16 days (reference value: 0.7%); type: organism-based; conditions: in vivo, 384 h, time 16 day
[29] = Toxicity in BALB/c nude mouse xenografted with human HL-60 cells assessed as kidney morphological alterations at 100 mg/kg, po qd for 16 days by Hematoxylin and Eosin staining based analysis; type: organism-based; conditions: in vivo, 384 h, time 16 day
[30] = Toxicity in BALB/c nude mouse xenografted with human HL-60 cells assessed as MCHC level at 100 mg/kg, po qd for 16 days (reference value: 246 g/L); type: organism-based; conditions: in vivo, 384 h, time 16 day

Cc1cc2ncnn2cc1Nc1ncc2c(n1)N(C1CCOCC1)CC(=O)N2C
Activity [1]: 0.002%
CI [2]: 0.04474
Activity [3]: Active
Activity [4]: Active
CI [5]: 0.06966
Activity [6]: 14.2 pg
Activity [7]: Non-Toxic
Activity [8]: Active
CI [9]: 0.4431
IC50 [10]: 800 pM
Activity [11]: 36 fL
CI [12]: 0.1382
CI [13]: 0.9806
CI [14]: 0.74
fraction unbound [15]: 0.667
Activity [16]: 57.27%
solubility kinetic at 24 h [17]: 80 µg/mL (≈ 203 µM)
CI [18]: 0.06059
Activity [19]: Non-Toxic
Activity [20]: 3.46%
microsomal CLint [21]: < 9.6 µL/min/mg
CI [22]: 0.2758
microsomal CLint [23]: < 9.6 µL/min/mg
CI [24]: 0.05143
IC50 [25]: < 100000 pM
inhibition [26]: Active
CI [27]: 1.006
Activity [28]: 0.641%
Activity [29]: Non-Toxic
Activity [30]: 249 g/L
